Measurements: US8461328B2, “Tricyclic heterocyclic compounds, compositions and methods of use thereof” (Genentech, Inc., priority 2010, dated 2013)

Columns and labels:
Format in all cases: biochemical
[1] = molecular target: T1, JAK3 (Homo sapiens, UniProt P52333); test: JAK3 inhibition (Table 4); settings: read-out: JAK3 Ki
T1 construct: made in house; host or cells: SF9 insect cells (baculovirus)

[2] = molecular target: T2, JAK2 (Homo sapiens, UniProt O60674); test: JAK2 inhibition (Table 4); settings: read-out: JAK2 Ki
T2 construct: made in house; host or cells: SF9 insect cells (baculovirus)

[3] = molecular target: T3, JAK1 (Homo sapiens, UniProt P23458); test: JAK1 inhibition (Table 4); settings: read-out: JAK1 Ki
T3 construct: made in house; host or cells: SF9 insect cells (baculovirus)

[4] = molecular target: T4, TYK2 (Homo sapiens, UniProt P29597); test: TYK2 inhibition (Table 4)
T4 construct: made in house; host or cells: SF9 insect cells (baculovirus)
T4 sequence (P29597 873-1187): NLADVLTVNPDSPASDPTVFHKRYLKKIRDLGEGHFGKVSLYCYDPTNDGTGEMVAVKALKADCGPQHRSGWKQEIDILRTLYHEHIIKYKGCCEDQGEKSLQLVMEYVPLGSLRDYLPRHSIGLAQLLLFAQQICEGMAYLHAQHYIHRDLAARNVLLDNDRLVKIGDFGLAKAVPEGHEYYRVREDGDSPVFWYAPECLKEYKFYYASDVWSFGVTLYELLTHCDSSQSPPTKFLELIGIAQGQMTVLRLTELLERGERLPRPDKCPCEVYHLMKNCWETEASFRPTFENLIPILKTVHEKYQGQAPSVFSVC

T1 sequence (P52333 783-1124): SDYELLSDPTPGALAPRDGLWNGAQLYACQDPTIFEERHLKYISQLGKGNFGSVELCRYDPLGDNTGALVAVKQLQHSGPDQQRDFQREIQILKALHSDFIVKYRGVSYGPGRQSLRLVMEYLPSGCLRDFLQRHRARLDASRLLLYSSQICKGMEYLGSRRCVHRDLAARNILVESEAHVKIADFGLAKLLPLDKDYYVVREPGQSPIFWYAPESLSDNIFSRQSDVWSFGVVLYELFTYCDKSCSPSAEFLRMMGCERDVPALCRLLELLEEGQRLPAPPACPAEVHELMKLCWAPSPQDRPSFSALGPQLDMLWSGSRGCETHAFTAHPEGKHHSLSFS
T2 sequence (O60674 812-1132): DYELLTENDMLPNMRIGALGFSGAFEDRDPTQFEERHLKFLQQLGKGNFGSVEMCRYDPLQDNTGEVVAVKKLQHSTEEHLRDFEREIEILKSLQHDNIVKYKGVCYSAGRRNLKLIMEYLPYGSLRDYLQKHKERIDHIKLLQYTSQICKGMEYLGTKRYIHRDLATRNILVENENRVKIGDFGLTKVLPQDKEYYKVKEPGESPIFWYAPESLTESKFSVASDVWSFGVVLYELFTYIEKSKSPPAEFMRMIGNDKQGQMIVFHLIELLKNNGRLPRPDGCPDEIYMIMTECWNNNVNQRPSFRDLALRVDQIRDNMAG
T3 sequence (P23458 852-1154): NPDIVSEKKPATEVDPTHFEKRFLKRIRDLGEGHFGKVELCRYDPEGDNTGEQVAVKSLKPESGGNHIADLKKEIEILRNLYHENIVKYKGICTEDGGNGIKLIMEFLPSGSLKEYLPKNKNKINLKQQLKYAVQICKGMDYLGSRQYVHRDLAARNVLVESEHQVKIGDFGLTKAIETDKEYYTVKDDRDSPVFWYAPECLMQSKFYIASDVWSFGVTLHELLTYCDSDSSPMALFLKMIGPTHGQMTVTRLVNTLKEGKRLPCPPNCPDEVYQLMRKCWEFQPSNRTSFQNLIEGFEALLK

Structure (SMILES) | Ki [1] | Ki [2] | Ki [3] | Ki [4]
c1cc2c(ncc3ncn([C@@H]4CCCN(Cc5cocn5)C4)c32)[nH]1 [Example 8, 1-((R)-1-Oxazol-4-ylmethyl-piperidin-3-yl)-1,6-dihydro-1,2,3,5,6-tetraaza-as-indacene] | 68.9 nM | 43.8 nM | 12.9 nM | 134 nM
CCS(=O)(=O)N1CCC(n2cnc3cnc4[nH]ccc4c32)CC1 [Example 442, 1-(1-Ethanesulfonyl-piperidin-4-yl)-1,6-dihydro-1,3,5,6-tetraaza-as-indacene] | 105 nM | 4.02 nM | 2.87 nM | 18.8 nM
Cc1nc2cnc3[nH]ccc3c2n1[C@H]1CC[C@H](CO)CC1 [Example 633, Trans[4-(2-methyl-6H-1,2,3,5,6-tetraaza-as-indacen-1-yl)-cyclohexyl]-methanol] | 12.1 nM | 3.31 nM | 1.19 nM | 6.08 nM
N#CCCN1CCC(n2c(CCn3cncn3)nc3cnc4[nH]ccc4c32)CC1 [Example 386, 3-{4-[2-(2-[1,2,4]Triazol-1-yl-ethyl)-6H-1,3,5,6-tetraaza-as-indacen-1-yl]-piperidin-1-yl}-propionitrile] | 79.2 nM | 64.3 nM | 17.8 nM | 319 nM
O=C([C@@H]1CCCN1)N1CCC(n2cnc3cnc4[nH]ccc4c32)CC1 [Example 249, (S)-Pyrrolidin-2-yl-[4-(6H-1,3,5,6-tetraaza-as-indacen-1-yl)-piperidin-1-yl]-methanone] | 1180 nM | 365 nM | 48.6 nM | 1110 nM
C[C@@H](O)c1nc2cnc3[nH]ccc3c2n1C1CCN(Cc2cnco2)CC1 [Example 898, (R)-1-[1-(1-Oxazol-5-ylmethyl-piperidin-4-yl)-1,6-dihydro-1,3,5,6-tetraaza-as-indacen-2-yl]-ethanol] | 12.9 nM | 54.4 nM | 2.09 nM | 96.7 nM
CC(CC#N)N1CCC(n2c(C3CC(=O)N(C)C3)nc3cnc4[nH]ccc4c32)CC1 (racemic) [Example 395, 3-{4-[2-(1-Methyl-5-oxo-pyrrolidin-3-yl)-6H-1,3,5,6-tetraaza-as-indacen-1-yl]-piperidin-1-yl}-butyronitrile] | 96.5 nM | 73 nM | 17.7 nM | 245 nM
O=C(N[C@H]1CC[C@H](n2cnc3cnc4[nH]ccc4c32)CC1)OC1CCNCC1 [Example 141, Trans[4-(6H-1,2,3,5,6-Tetraaza-as-indacen-1-yl)-cyclohexyl]-carbamic acid piperidin-4-yl ester] | 393 nM | 23.7 nM | 8.44 nM | 330 nM
Cc1nc2cnc3[nH]ccc3c2n1C(C)CCO (racemic) [Example 416, 3-(2-Methyl-6H-1,3,5,6-tetraaza-as-indacen-1-yl)-butan-1-ol] | 48.8 nM | 126 nM | 33.6 nM | 339 nM
OCCc1nc2cnc3[nH]ccc3c2n1[C@H]1CCCOC1 [Example 859, (S)-2-[1-(Tetrahydro-pyran-3-yl)-1,6-dihydro-1,3,5,6-tetraaza-as-indacen-2-yl]-ethanol] | 107 nM | 53 nM | 10.1 nM | 68.4 nM
COCC(=O)N1CCC(n2cnc3cnc4[nH]ccc4c32)CC1 [Example 192, 2-Methoxy-1-[4-(6H-1,2,3,5,6-tetraaza-as-indacen-1-yl)-piperidin-1-yl]-ethanone] | 401 nM | 51.3 nM | 24.5 nM | 388 nM
O=C(CC(F)(F)F)N1CCC[C@@H](n2cnc3cnc4[nH]ccc4c32)C1 [Example 296] | 19.5 nM | 4.75 nM | 3.3 nM | 16.2 nM
c1cc2c(ncc3nc([C@H]4CCCN4)n([C@H]4CCCOC4)c32)[nH]1 [Example 667, 2-(R)-Pyrrolidin-2-yl-1-(S)-tetrahydro-pyran-3-yl-1,6-dihydro-1,2,3,5,6-tetraaza-as-indacene] | 895 nM | 467 nM | 114 nM | 519 nM
OC[C@]1(O)CC[C@@H](n2nnc3cnc4[nH]ccc4c32)CC1 [Example 716, Cis-1-Hydroxymethyl-4-(6H-1,2,3,5,6-pentaaza-as-indacen-1-yl)-cyclohexanol] | 167 nM | 23.3 nM | 10.6 nM | 74.3 nM
COC[C@H]1CC[C@H](n2c([C@@H](C)O)nc3cnc4[nH]ccc4c32)CC1 [Example 637, Trans (R)-1-[1-(4-methoxymethyl-cyclohexyl)-1,6-dihydro-1,2,3,5,6-tetraaza-as-indacen-2-yl]-ethanol] | 37 nM | 35.6 nM | 1.89 nM | 7.42 nM
CCN1CCC(n2c([C@@H](C)O)nc3cnc4[nH]ccc4c32)C(F)(F)C1 (single isomer, unassigned) [Example 880] | 4.97 nM | 19.4 nM | 1.95 nM | 24.7 nM
c1cc(N2CCC[C@@H](n3cnc4cnc5[nH]ccc5c43)C2)ncn1 [Example 14, 1-((R)-1-Pyrimidin-4-yl-piperidin-3-yl)-1,6-dihydro-1,2,3,5,6-tetraaza-as-indacene] | 26.5 nM | 13.6 nM | 11.4 nM | 85.6 nM
N#CCCN1CCC(n2c(CC(=O)N3CCOCC3)nc3cnc4[nH]ccc4c32)CC1 [Example 160, 3-{4-[2-(2-Morpholin-4-yl-2-oxo-ethyl)-6H-1,2,3,5,6-tetraaza-as-indacen-1-yl]-piperidin-1-yl}-propionitrile] | 10.7 nM | 70.6 nM | 8.43 nM | 100 nM
OCCN1CC[C@@H](n2cnc3cnc4[nH]ccc4c32)C1 [Example 184, 2-[(R)-3-(6H-1,2,3,5,6-Tetraaza-as-indacen-1-yl)-pyrrolidin-1-yl]-ethanol] | 1490 nM | 250 nM | 94.7 nM | 644 nM
Cc1noc(C)c1S(=O)(=O)N1CCC(n2cnc3cnc4[nH]ccc4c32)CC1 [Example 447, 1-[1-(3,5-Dimethyl-isoxazole-4-sulfonyl)-piperidin-4-yl]-1,6-dihydro-1,3,5,6-tetraaza-as-indacene] | 477 nM | 21.2 nM | 16.4 nM | 84.4 nM
CCNC(=O)Cc1nc2cnc3[nH]ccc3c2n1C1CCCOC1 (racemic) [Example 962, N-Ethyl-2-[1-(tetrahydro-pyran-3-yl)-1,6-dihydro-1,3,5,6-tetraaza-as-indacen-2-yl]-acetamide] | 177 nM | 208 nM | 35.8 nM | 399 nM
CC(C)CC(=O)N1CCC[C@@H](n2c([C@@H](C)O)nc3cnc4[nH]ccc4c32)C1 [Example 793, 1-{(R)-3-[2-((R)-1-Hydroxy-ethyl)-6H-1,3,5,6-tetraaza-as-indacen-1-yl]-piperidin-1-yl}-3-methyl-butan-1-one] | 2360 nM | 2280 nM | 267 nM | 2010 nM
N#CCC(=O)N1CCC(F)C(n2nnc3cnc4[nH]ccc4c32)C1 (racemic) [Example 519, 3-[4-Fluoro-3-(6H-1,2,3,5,6-pentaaza-as-indacen-1-yl)-piperidin-1-yl]-3-oxo-propionitrile] | 33 nM | 4.92 nM | 1.74 nM | 24.5 nM
O=S1(=O)CCCN1Cc1nc2cnc3[nH]ccc3c2n1C1CCCCC1 [Example 696, 1-Cyclohyl-2-(1,1-dioxo-1,1,6-isothiazolidin-2-ylmethyl)-1,6-dihydro-1,2,3,5,6-tetraaza-as-indacene] | 57.5 nM | 66.8 nM | 13.6 nM | 49.6 nM
COCC(=O)NC1CCCC(n2cnc3cnc4[nH]ccc4c32)C1 (single isomer, unassigned) [Example 482, 2-Methoxy-N-[3-(6H-1,3,5,6-tetraaza-as-indacen-1-yl)-cyclohexyl]-acetamide] | 150 nM | 97.6 nM | 55.8 nM | 845 nM
OC1CCN(Cc2nc3cnc4[nH]ccc4c3n2C2CCCCC2)CC1 [Example 932, 1-(1-Cyclohyl-1,6-dihydro-1,3,5,6-tetraaza-as-indacen-2-ylmethyl)-piperidin-4-ol] | 1050 nM | 579 nM | 41 nM | 357 nM
CN(C)C(=O)CNC(=O)Cc1nc2cnc3[nH]ccc3c2n1C1CCCOC1 (racemic) [Example 970, N-Dimethylcarbamoylmethyl-2-[1-(tetrahydro-pyran-3-yl)-1,6-dihydro-1,3,5,6-tetraaza-as-indacen-2-yl]-acetamide] | 206 nM | 124 nM | 34.3 nM | 245 nM
FC(F)(F)CNC1CCC(n2nnc3cnc4[nH]ccc4c32)C1 (racemic) [Example 718, [3-(6H-1,2,3,5,6-Pentaaza-as-indacen-1-yl)-cyclopentyl]-(2,2,2-trifluoro-ethyl)-amine] | 143 nM | 20.8 nM | 10.3 nM | 83.1 nM
Cc1nc2cnc3[nH]ccc3c2n1[C@@H]1CC[C@@H](NCCC#N)C1 [Example 724, 3-[(1R,3R)-3-(2-Methyl-6H-1,3,5,6-tetraaza-as-indacen-1-yl)-cyclopentylamino]-propionitrile] | 16 nM | 24.3 nM | 6.27 nM | 78.9 nM
